Columns and labels:
Format in all cases: biochemical
SIK2 = SIK2 (Homo sapiens, UniProt Q9H0K1); test: Enzymatic activity assay SIK2, RapidFire mass spectrometry (phosphorylation of CHK-peptide); conditions: RapidFire MS, inhibition of SIK2; read-out: SIK2 RF IC50
How it was run: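 Read-out is the summed phospho-species fraction of CHK-peptide by RapidFire mass spectrometry, normalized between DMSO and 1 μM YKL-05-099. The reaction used 0.5 nM SIK2, 100 μM ATP and 10 μM peptide solutions in HEPES pH 7.0/10 mM magnesium acetate for 45 min at ambient temperature.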

SIK1 = SIK1 (Homo sapiens, UniProt P57059); test: Enzymatic activity assay SIK1, RapidFire mass spectrometry (phosphorylation of CHK-peptide); conditions: RapidFire MS, inhibition of SIK1; read-out: SIK1 RF IC50
Sequence of SIK1 (P57059 whole entry): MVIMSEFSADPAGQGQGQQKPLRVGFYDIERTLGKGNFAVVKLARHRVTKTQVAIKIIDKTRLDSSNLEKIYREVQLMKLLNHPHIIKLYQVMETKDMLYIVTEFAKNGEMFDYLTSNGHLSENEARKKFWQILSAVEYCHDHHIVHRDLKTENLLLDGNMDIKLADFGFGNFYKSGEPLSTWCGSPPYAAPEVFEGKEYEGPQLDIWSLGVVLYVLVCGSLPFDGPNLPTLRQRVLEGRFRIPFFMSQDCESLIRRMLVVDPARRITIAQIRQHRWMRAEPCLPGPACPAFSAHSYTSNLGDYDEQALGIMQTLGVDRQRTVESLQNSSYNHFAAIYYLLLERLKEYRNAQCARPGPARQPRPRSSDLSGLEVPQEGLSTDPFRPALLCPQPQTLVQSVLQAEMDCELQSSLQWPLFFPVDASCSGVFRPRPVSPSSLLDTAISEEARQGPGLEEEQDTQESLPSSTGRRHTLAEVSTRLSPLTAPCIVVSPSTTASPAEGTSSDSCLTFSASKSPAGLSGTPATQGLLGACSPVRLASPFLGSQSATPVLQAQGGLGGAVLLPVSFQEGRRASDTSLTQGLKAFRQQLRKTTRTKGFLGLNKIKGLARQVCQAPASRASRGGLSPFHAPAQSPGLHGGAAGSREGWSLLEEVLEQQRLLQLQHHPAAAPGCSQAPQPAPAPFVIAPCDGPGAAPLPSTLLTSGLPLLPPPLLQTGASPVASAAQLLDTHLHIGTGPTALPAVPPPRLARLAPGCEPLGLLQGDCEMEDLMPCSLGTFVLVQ
How it was run: (§1)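 Human SIK1/2/3, 5/0.5/1.5 nM; 12.5 mM HEPES pH 7.0, 10 mM Mg acetate, 0.005% BSA. 30 min cpd pre-inc, + CHK-peptide (10 μM soln) + ATP (100 μM soln), 45 min RT. Formic acid stop; RF-MS phospho ratio; IC50.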

SIK3 = SIK3 (Homo sapiens, UniProt Q9Y2K2); test: Enzymatic activity assay SIK3, RapidFire mass spectrometry (phosphorylation of CHK-peptide); conditions: RapidFire MS, inhibition of SIK3; read-out: SIK3 RF IC50
Sequence of SIK3 (Q9Y2K2 whole entry): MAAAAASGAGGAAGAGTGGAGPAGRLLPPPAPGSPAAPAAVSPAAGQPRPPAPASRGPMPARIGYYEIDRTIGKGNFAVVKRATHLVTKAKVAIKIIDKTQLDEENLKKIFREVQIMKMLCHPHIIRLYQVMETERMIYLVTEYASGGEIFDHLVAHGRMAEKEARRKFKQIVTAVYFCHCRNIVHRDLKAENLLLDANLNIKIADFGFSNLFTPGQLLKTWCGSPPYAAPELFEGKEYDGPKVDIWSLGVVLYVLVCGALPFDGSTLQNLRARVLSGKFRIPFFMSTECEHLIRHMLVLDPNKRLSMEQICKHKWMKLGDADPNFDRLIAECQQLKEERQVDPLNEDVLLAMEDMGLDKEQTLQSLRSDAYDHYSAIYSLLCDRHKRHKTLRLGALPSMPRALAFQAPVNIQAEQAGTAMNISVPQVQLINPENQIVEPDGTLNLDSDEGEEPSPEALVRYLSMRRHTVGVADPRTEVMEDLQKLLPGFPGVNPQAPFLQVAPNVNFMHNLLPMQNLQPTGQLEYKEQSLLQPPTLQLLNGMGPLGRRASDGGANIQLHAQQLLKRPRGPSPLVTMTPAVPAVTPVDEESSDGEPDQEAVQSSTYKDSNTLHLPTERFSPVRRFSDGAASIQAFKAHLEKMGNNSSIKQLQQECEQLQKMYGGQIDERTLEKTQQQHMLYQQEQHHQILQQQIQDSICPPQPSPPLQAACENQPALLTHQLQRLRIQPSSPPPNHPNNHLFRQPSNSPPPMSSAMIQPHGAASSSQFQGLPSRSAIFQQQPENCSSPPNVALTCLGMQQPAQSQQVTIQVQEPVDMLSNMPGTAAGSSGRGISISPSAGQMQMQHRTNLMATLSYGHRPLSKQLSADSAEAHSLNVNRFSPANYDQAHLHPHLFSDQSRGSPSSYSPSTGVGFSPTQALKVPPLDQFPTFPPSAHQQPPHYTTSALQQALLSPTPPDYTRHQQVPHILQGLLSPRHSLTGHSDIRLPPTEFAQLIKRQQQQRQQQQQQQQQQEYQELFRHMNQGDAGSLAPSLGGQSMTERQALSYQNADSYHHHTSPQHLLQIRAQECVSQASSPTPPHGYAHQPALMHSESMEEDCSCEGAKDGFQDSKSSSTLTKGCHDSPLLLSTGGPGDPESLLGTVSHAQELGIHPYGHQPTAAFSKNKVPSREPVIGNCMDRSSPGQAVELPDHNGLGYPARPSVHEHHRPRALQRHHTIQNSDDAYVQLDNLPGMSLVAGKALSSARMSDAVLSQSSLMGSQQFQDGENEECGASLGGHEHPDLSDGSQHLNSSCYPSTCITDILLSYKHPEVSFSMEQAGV
How it was run: as §1

Sequence of SIK2 (Q9H0K1 whole entry): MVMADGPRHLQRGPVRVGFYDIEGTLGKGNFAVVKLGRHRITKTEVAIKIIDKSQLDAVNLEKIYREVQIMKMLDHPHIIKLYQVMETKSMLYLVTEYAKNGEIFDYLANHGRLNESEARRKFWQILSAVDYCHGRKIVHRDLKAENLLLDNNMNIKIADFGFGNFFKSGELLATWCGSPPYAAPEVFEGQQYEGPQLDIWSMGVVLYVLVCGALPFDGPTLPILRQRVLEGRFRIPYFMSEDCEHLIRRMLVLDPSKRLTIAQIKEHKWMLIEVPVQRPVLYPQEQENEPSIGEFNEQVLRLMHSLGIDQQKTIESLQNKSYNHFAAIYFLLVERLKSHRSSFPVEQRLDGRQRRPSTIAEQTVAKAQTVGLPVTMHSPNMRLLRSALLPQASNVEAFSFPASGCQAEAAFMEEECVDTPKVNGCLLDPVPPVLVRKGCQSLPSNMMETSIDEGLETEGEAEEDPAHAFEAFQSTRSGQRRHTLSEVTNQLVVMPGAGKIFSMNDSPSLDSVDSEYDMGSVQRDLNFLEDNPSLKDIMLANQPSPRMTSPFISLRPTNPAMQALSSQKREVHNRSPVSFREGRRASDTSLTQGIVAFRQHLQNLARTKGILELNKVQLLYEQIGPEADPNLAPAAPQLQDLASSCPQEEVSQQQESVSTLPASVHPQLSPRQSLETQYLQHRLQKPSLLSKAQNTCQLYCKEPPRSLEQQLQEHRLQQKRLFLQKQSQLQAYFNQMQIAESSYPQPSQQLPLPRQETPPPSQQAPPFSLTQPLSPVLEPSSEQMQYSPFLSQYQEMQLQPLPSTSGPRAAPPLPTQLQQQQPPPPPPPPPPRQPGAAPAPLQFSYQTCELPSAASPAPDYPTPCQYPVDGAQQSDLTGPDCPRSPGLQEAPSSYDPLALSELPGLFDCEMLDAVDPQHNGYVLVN

Row | Structure (SMILES) | IC50 (SIK2) | IC50 (SIK1) | IC50 (SIK3)
1 | Cc1ccc(Nc2ccc3c(c2)ncn3-c2ccc(C(C)O)c(N3CCOC(C#N)C3)n2)nn1 (stereo not drawn) [Example 360, 4-[3-(1-hydroxyethyl)-6-[5-[(6-methylpyridazin-3-yl)amino]benzimidazol-1-yl]-2-pyridyl]morpholine-2-carbonitrile] | 42.3 nM | 2320 nM | 7.9 nM
2 | Cc1ccc(Nc2ccc3c(c2)ncn3-c2nc(-n3ccc(C#N)n3)c(C(C)O)cc2Cl)nn1 (stereo not drawn) [Example 239, 1-[5-Chloro-3-(1-hydroxyethyl)-6-[5-[(6-methylpyridazin-3-yl)amino]benzimidazol-1-yl]-2-pyridyl]pyrazole-3-carbonitrile] | 1390 nM | > 30000 nM | 329 nM
3 | Cc1ccc(Nc2cc3ncn(-c4ccc(C(C)O)c(-n5nc(C#N)cc5C)n4)c3cc2OC(F)F)nn1 (stereo not drawn) [Example 388, 1-[6-[6-(difluoromethoxy)-5-[(6-methylpyridazin-3-yl)amino]benzimidazol-1-yl]-3-(1-hydroxyethyl)-2-pyridyl]-5-methyl-pyrazole-3-carbonitrile] | 0.4 nM | 11 nM | 0.7 nM
4 | Cc1ccc(Nc2ccc3c(c2)ncn3-c2ccc(C(C)O)c(-n3nc(C(F)(F)F)c4c3CCN(C)C4)n2)nn1 (stereo not drawn) [Example 171, 1-[6-[5-[(6-Methylpyridazin-3-yl)amino]benzimidazol-1-yl]-2-[5-methyl-3-(trifluoromethyl)-6,7-dihydro-4H-pyrazolo[4,3-c]pyridin-1-yl]-3-pyridyl]ethanol; formic acid] | 0.3 nM | 9 nM | 0.7 nM
5 | Cc1ccc(Nc2ccc3c(c2)ncn3-c2ccc(C(C)O)c(-n3nc(OC(F)F)cc3C(F)F)n2)nn1 (stereo not drawn) [Example 404, 1-[2-[3-(difluoromethoxy)-5-(difluoromethyl)pyrazol-1-yl]-6-[5-[(6-methylpyridazin-3-yl)amino]benzimidazol-1-yl]-3-pyridyl]ethanol] | 0.5 nM | 41 nM | 0.5 nM
6 | Cc1ccc(Nc2ccc3c(c2)ncn3-c2ccc(C(C)O)c(-c3cc(C#N)n(C)n3)n2)nn1 (stereo not drawn) [Example 246, 5-[3-(1-Hydroxyethyl)-6-[5-[(6-methylpyridazin-3-yl)amino]benzimidazol-1-yl]-2-pyridyl]-2-methyl-pyrazole-3-carbonitrile; formic acid] | 29.5 nM | 7780 nM | 5.4 nM
7 | Cc1ccc(Nc2cc3c(cc2CC2COC2)ncn3-c2ccc(C(C)O)c(-n3nc(OC(F)F)cc3C)n2)nn1 (stereo not drawn) [Example 406, 1-[2-[3-(difluoromethoxy)-5-methyl-pyrazol-1-yl]-6-[6-[(6-methylpyridazin-3-yl)amino]-5-(oxetan-3-ylmethyl)benzimidazol-1-yl]-3-pyridyl]ethanol] | 13.4 nM | 47 nM | 144 nM
8 | Cc1ccc(Nc2cc3c(cc2F)ncn3-c2ccc(C(C)O)c(-n3nc(C(F)F)cc3C)n2)c(F)c1F (stereo not drawn) [Example 362, 1-[6-[6-(2,3-difluoro-4-methyl-anilino)-5-fluoro-benzimidazol-1-yl]-2-[3-(difluoromethyl)-5-methyl-pyrazol-1-yl]-3-pyridyl]ethanol] | 8.7 nM | 12 nM | 26.7 nM
9 | Cc1ccc(Nc2ccc3c(c2)ncn3-c2ccc(C(C)O)c(-c3c(C)noc3C)n2)nn1 (stereo not drawn) [Example 159, 1-[2-(3,5-Dimethylisoxazol-4-yl)-6-[5-[(6-methylpyridazin-3-yl)amino]benzimidazol-1-yl]-3-pyridyl]ethanol] | 306 nM | 23800 nM | 70.2 nM
10 | COC(C)Cn1ncc(-c2nc(-n3cnc4cc(Nc5ccc(C)nn5)ccc43)ccc2C(C)O)c1C (stereo not drawn) [Example 279, 1-[2-[1-(2-methoxypropyl)-5-methyl-pyrazol-4-yl]-6-[5-[(6-methylpyridazin-3-yl)amino]benzimidazol-1-yl]-3-pyridyl]ethanol] | 4.7 nM | 532 nM | 2.9 nM
11 | Cc1cc(C(F)F)nn1-c1nc(-n2cnc3cc(N4C[C@H]5OCCN(C)[C@H]5C4)ccc32)ccc1CO [Example 318, [6-[5-[(4aS,7aR)-4-methyl-2,3,4a,5,7,7a-hexahydropyrrolo[3,4-b][1,4]oxazin-6-yl]benzimidazol-1-yl]-2-[3-(difluoromethyl)-5-methyl-pyrazol-1-yl]-3-pyridyl]methanol] | 50.1 nM | 327 nM | 65 nM
12 | COc1cc2ncn(-c3ccc(CO)c(N4CCCCC4)n3)c2cc1OC [Example 28, (6-(5,6-Dimethoxy-1H-benzo[d]imidazol-1-yl)-2-(piperidin-1-yl)pyridin-3-yl)methanol] | 268 nM | 326 nM | 713 nM
13 | CCc1cc(C(F)F)nn1-c1nc(-n2cnc3cc(Nc4ccc(C)nn4)ccc32)ccc1C(C)O (stereo not drawn) [Example 370, 1-[2-[3-(difluoromethyl)-5-ethyl-pyrazol-1-yl]-6-[5-[(6-methylpyridazin-3-yl)amino]benzimidazol-1-yl]-3-pyridyl]ethanol] | 7.1 nM | 496 nM | 2 nM
14 | Cc1cc(C#N)nn1-c1nc(-n2cnc3cc(CN4CCCCC4=O)ccc32)ccc1C(C)O (stereo not drawn) [Example 216, 1-[3-(1-Hydroxyethyl)-6-[5-[(2-oxo-1-piperidyl)methyl]benzimidazol-1-yl]-2-pyridyl]-5-methyl-pyrazole-3-carbonitrile] | 2240 nM | 10800 nM | 476 nM
15 | Cc1cc(C#N)nn1-c1nc(-n2cnc3cc(-c4ccn(C)c(=O)n4)ccc32)ccc1C(C)O (stereo not drawn) [Example 338, 1-[3-(1-hydroxyethyl)-6-[5-(1-methyl-2-oxo-pyrimidin-4-yl)benzimidazol-1-yl]-2-pyridyl]-5-methyl-pyrazole-3-carbonitrile] | 27.2 nM | 87 nM | 27.6 nM
16 | Cc1ccc(Nc2ccc3c(c2)ncn3-c2ccc([C@H](C)O)c(-n3nc(C(F)F)cc3C)n2)nn1 [Example 229, (1S)-1-[2-[3-(Difluoromethyl)-5-methyl-pyrazol-1-yl]-6-[5-[(6-methylpyridazin-3-yl)amino]benzimidazol-1-yl]-3-pyridyl]ethanol] | 1.5 nM | 223 nM | 0.4 nM
17 | Cc1ccc(Nc2ccc3c(c2)ncn3-c2ccc(C(C)O)c(N3CCN(CC(F)(F)F)C(=O)C3)n2)nn1 (stereo not drawn) [Example 136, 4-[3-(1-Hydroxyethyl)-6-[5-[(6-methylpyridazin-3-yl)amino]benzimidazol-1-yl]-2-pyridyl]-1-(2,2,2-trifluoroethyl)piperazin-2-one] | 13 nM | 345 nM | 3.9 nM
18 | Cc1ccc(Nc2ccc3c(c2)ncn3-c2ccc(C(C)O)c(-c3cn(CC4CCC4)nc3C)n2)nn1 (stereo not drawn) [Example 274, 1-[2-[1-(Cyclobutylmethyl)-3-methyl-pyrazol-4-yl]-6-[5-[(6-methylpyridazin-3-yl)amino]benzimidazol-1-yl]-3-pyridyl]ethanol] | 1.2 nM | 120 nM | 1.1 nM
19 | CC(O)c1ccc(-n2cnc3cc(OCCN4CCOCC4)ccc32)nc1Nc1ccccc1 (stereo not drawn) [Example 55, 1-[2-Anilino-6-[5-(2-morpholinoethoxy)benzimidazol-1-yl]-3-pyridyl]ethanol] | 103 nM | 1290 nM | 130 nM
20 | Cc1nn(CC(F)(F)F)cc1-c1nc(-n2cnc3cc(Oc4ccc(CN5CCN(C)CC5)nn4)ccc32)ccc1C(C)O (stereo not drawn) [Example 352, 1-[6-[5-[6-[(4-methylpiperazin-1-yl)methyl]pyridazin-3-yl]oxybenzimidazol-1-yl]-2-[3-methyl-1-(2,2,2-trifluoroethyl)pyrazol-4-yl]-3-pyridyl]ethanol] | 16.5 nM | 2340 nM | 24.1 nM
21 | COCC(O)c1ccc(-n2cnc3cc(Nc4ccc(C)nn4)ccc32)nc1-n1nc(C#N)cc1C (stereo not drawn) [Example 234, 1-[3-(1-Hydroxy-2-methoxy-ethyl)-6-[5-[(6-methylpyridazin-3-yl)amino]benzimidazol-1-yl]-2-pyridyl]-5-methyl-pyrazole-3-carbonitrile; formic acid] | 9.3 nM | 756 nM | 1.1 nM
22 | Cc1ccc(Nc2ccc3c(c2)ncn3-c2ccc(C(C)O)c(-c3cnn(CC4CC4)c3C)n2)nn1 (stereo not drawn) [Example 272, 1-[2-[1-(Cyclopropylmethyl)-5-methyl-pyrazol-4-yl]-6-[5-[(6-methylpyridazin-3-yl)amino]benzimidazol-1-yl]-3-pyridyl]ethanol; formic acid] | 2.4 nM | 193 nM | 1.2 nM
23 | Cc1ccc(Nc2ccc3ncn(-c4ccc(C(C)O)c(NCC5(C#N)CC5)n4)c3c2)nn1 (stereo not drawn) [Example 117, 1-[[[3-(1-Hydroxyethyl)-6-[6-[(6-methylpyridazin-3-yl)amino]benzimidazol-1-yl]-2-pyridyl]amino]methyl]cyclopropanecarbonitrile; formic acid] | 1020 nM | 3530 nM | 365 nM
24 | COc1cc2ncn(-c3ccc(C(C)O)c(-c4cccc(Cl)c4F)n3)c2cc1OC (stereo not drawn) [Example 20, 1-(2-(3-Chloro-2-fluorophenyl)-6-(5,6-dimethoxy-1H-benzo[d]imidazol-1-yl)pyridin-3-yl)ethan-1-ol] | 5 nM | 12 nM | 19.8 nM
25 | COc1cc2ncn(-c3ccc([C@H](C)O)c(-c4ccn(C)c(=O)c4)n3)c2cc1OC [Example 41, (S)-6-(5,6-Dimethoxy-1H-benzo[d]imidazol-1-yl)-3-(1-hydroxyethyl)-1′-methyl-[2,4′-bipyridin]-2′(1′H)-one] | 91.7 nM | 197 nM | 300 nM
